ChEMBL document CHEMBL1201861, “Genomics of Drug Sensitity in Cancer screening data, Wellcome Trust Sanger Institute”

What was measured:
Assay type in all cases: functional, cell-based
HOP-92 = assay: cells; details: Homo sapiens
Description: SANGER: Inhibition of human HOP-92 cell growth in a cell viability assay.

SCC-4 = assay: cells; details: Homo sapiens
Description: SANGER: Inhibition of human SCC-4 cell growth in a cell viability assay.

KYSE-410 = assay: cells; details: Homo sapiens
Description: SANGER: Inhibition of human KYSE-410 cell growth in a cell viability assay.

NCCIT = assay: SANGER: Inhibition of human NCCIT cell growth in a cell viability assay.
EVSA-T = assay: cells; details: Homo sapiens
Description: SANGER: Inhibition of human EVSA-T cell growth in a cell viability assay.

MKN-1 = assay: cells; details: Homo sapiens
Description: SANGER: Inhibition of human MKN1 cell growth in a cell viability assay.

U-118-MG = assay: cells; details: Homo sapiens
Description: SANGER: Inhibition of human U-118-MG cell growth in a cell viability assay.

C32 = assay: cells; details: Homo sapiens
Description: SANGER: Inhibition of human C32 cell growth in a cell viability assay.

JIYOYE = assay: cells; details: Homo sapiens
Description: SANGER: Inhibition of human JiyoyeP-2003 cell growth in a cell viability assay.

NCI-H187 = assay: cells; details: Homo sapiens
Description: SANGER: Inhibition of human NCI-H187 cell growth in a cell viability assay.

KU-19-19 = assay: cells; details: Homo sapiens
Description: SANGER: Inhibition of human KU-19-19 cell growth in a cell viability assay.

MC-IXC = assay: cells; details: Homo sapiens
Description: SANGER: Inhibition of human MC-IXC cell growth in a cell viability assay.

SUP-T1 = assay: cells; details: Homo sapiens
Description: SANGER: Inhibition of human SUP-T1 cell growth in a cell viability assay.

AN3-CA = assay: cells; details: Homo sapiens
Description: SANGER: Inhibition of human AN3-CA cell growth in a cell viability assay.

NCI-H2227 = assay: cells; details: Homo sapiens
Description: SANGER: Inhibition of human NCI-H2227 cell growth in a cell viability assay.

HT55 = assay: cells; details: Homo sapiens
Description: SANGER: Inhibition of human HT55 cell growth in a cell viability assay.

SCC-3 = assay: cells; details: Homo sapiens
Description: SANGER: Inhibition of human SCC-3 cell growth in a cell viability assay.

TYK-nu = assay: cells; details: Homo sapiens
Description: SANGER: Inhibition of human TYK-nu cell growth in a cell viability assay.

T-24 = assay: cells; details: Homo sapiens
Description: SANGER: Inhibition of human T-24 cell growth in a cell viability assay.

COLO-678 = assay: cells; details: Homo sapiens
Description: SANGER: Inhibition of human COLO-678 cell growth in a cell viability assay.

SW48 = assay: cells; details: Homo sapiens
Description: SANGER: Inhibition of human SW48 cell growth in a cell viability assay.

GDM-1 = assay: cells; details: Homo sapiens
Description: SANGER: Inhibition of human GDM-1 cell growth in a cell viability assay.

NCI-H520 = assay: cells; details: Homo sapiens
Description: SANGER: Inhibition of human NCI-H520 cell growth in a cell viability assay.

TT = assay: cells; details: Homo sapiens
Description: SANGER: Inhibition of human TT cell growth in a cell viability assay.

KYSE-520 cell line = assay: cells; details: Homo sapiens
Description: SANGER: Inhibition of human KYSE-520 cell growth in a cell viability assay.

K052 = assay: cells; details: Homo sapiens
Description: SANGER: Inhibition of human K052 cell growth in a cell viability assay.

SF-295 = assay: cells; details: Homo sapiens
Description: SANGER: Inhibition of human SF295 cell growth in a cell viability assay.

HSC-3 = assay: cells; details: Homo sapiens
Description: SANGER: Inhibition of human HSC-3 cell growth in a cell viability assay.

NCI-H292 = assay: cells; details: Homo sapiens
Description: SANGER: Inhibition of human NCI-H292 cell growth in a cell viability assay.

CAL-72 = assay: cells; details: Homo sapiens
Description: SANGER: Inhibition of human CAL-72 cell growth in a cell viability assay.

A2780 = assay: cells; details: Homo sapiens
Description: SANGER: Inhibition of human A2780 cell growth in a cell viability assay.

KYSE-510 = assay: cells; details: Homo sapiens
Description: SANGER: Inhibition of human KYSE-510 cell growth in a cell viability assay.

NCI-H524 = assay: cells; details: Homo sapiens
Description: SANGER: Inhibition of human NCI-H524 cell growth in a cell viability assay.

NCI-H2009 = assay: cells; details: Homo sapiens
Description: SANGER: Inhibition of human NCI-H2009 cell growth in a cell viability assay.

GCT = assay: cells; details: Homo sapiens
Description: SANGER: Inhibition of human GCT cell growth in a cell viability assay.

NCI-H1522 = assay: cells; details: Homo sapiens
Description: SANGER: Inhibition of human NCI-H1522 cell growth in a cell viability assay.

HT-3 = assay: cells; details: Homo sapiens
Description: SANGER: Inhibition of human HT-3 cell growth in a cell viability assay.

SW780 = assay: cells; details: Homo sapiens
Description: SANGER: Inhibition of human SW780 cell growth in a cell viability assay.

OE33 = assay: cells; details: Homo sapiens
Description: SANGER: Inhibition of human OE33 cell growth in a cell viability assay.

LOUCY = assay: cells; details: Homo sapiens
Description: SANGER: Inhibition of human LOUCY cell growth in a cell viability assay.

L-540 = assay: cells; details: Homo sapiens
Description: SANGER: Inhibition of human L-540 cell growth in a cell viability assay.

SNU-16 = assay: cells; details: Homo sapiens
Description: SANGER: Inhibition of human NCI-SNU-16 cell growth in a cell viability assay.

VM-CUB-1 = assay: cells; details: Homo sapiens
Description: SANGER: Inhibition of human VM-CUB-1 cell growth in a cell viability assay.

DBTRG-05MG = assay: cells; details: Homo sapiens
Description: SANGER: Inhibition of human DBTRG-05MG cell growth in a cell viability assay.

SAOS-2 = assay: cells; details: Homo sapiens
Description: SANGER: Inhibition of human Saos-2 cell growth in a cell viability assay.

EW-7 = assay: SANGER: Inhibition of human EW-7 cell growth in a cell viability assay.
HCC1419 = assay: cells; details: Homo sapiens
Description: SANGER: Inhibition of human HCC1419 cell growth in a cell viability assay.

A-427 = assay: cells; details: Homo sapiens
Description: SANGER: Inhibition of human A427 cell growth in a cell viability assay.

NCI-H1993 = assay: cells; details: Homo sapiens
Description: SANGER: Inhibition of human NCI-H1993 cell growth in a cell viability assay.

Daoy = assay: cells; details: Homo sapiens
Description: SANGER: Inhibition of human Daoy cell growth in a cell viability assay.

HGC-27 = assay: cells; details: Homo sapiens
Description: SANGER: Inhibition of human HGC-27 cell growth in a cell viability assay.

639-V = assay: cells; details: Homo sapiens
Description: SANGER: Inhibition of human 639-V cell growth in a cell viability assay.

SNU-C1 = assay: cells; details: Homo sapiens
Description: SANGER: Inhibition of human SNU-C1 cell growth in a cell viability assay.

SW1417 = assay: cells; details: Homo sapiens
Description: SANGER: Inhibition of human SW1417 cell growth in a cell viability assay.

BC1 cell line = assay: SANGER: Inhibition of human BC-1 cell growth in a cell viability assay.
HCC1569 = assay: cells; details: Homo sapiens
Description: SANGER: Inhibition of human HCC1569 cell growth in a cell viability assay.

MG-63 = assay: cells; details: Homo sapiens
Description: SANGER: Inhibition of human MG-63 cell growth in a cell viability assay.

ST486 = assay: SANGER: Inhibition of human ST486 cell growth in a cell viability assay.
SNU-387 = assay: cells; details: Homo sapiens
Description: SANGER: Inhibition of human SNU-387 cell growth in a cell viability assay.

DV-90 = assay: cells; details: Homo sapiens
Description: SANGER: Inhibition of human DV-90 cell growth in a cell viability assay.

BC-3 = assay: cells; details: Homo sapiens
Description: SANGER: Inhibition of human BC-3 cell growth in a cell viability assay.

SJRH30 = assay: cells; details: Homo sapiens
Description: SANGER: Inhibition of human SJRH30 cell growth in a cell viability assay.

## N#C/C(=C1/Nc2ccccc2S1)c1ccnc(NCCc2cccnc2)n1
HOP-92
  IC50: > 8000 nM
SCC-4
  IC50: > 8000 nM
KYSE-410
  IC50: > 8000 nM
NCCIT
  IC50: > 8000 nM
EVSA-T
  IC50: > 8000 nM
MKN-1
  IC50: 2900 nM
U-118-MG
  IC50: > 8000 nM
C32
  IC50: > 8000 nM
JIYOYE
  IC50: > 8000 nM
NCI-H187
  IC50: > 8000 nM
KU-19-19
  IC50: > 8000 nM
MC-IXC
  IC50: > 8000 nM
SUP-T1
  IC50: > 8000 nM
AN3-CA
  IC50: 2590 nM
NCI-H2227
  IC50: > 8000 nM
HT55
  IC50: > 8000 nM
SCC-3
  IC50: > 8000 nM
TYK-nu
  IC50: 1750 nM
T-24
  IC50: > 8000 nM
COLO-678
  IC50: > 8000 nM
SW48
  IC50: 2160 nM
GDM-1
  IC50: > 8000 nM
NCI-H520
  IC50: > 8000 nM
TT
  IC50: > 8000 nM
KYSE-520 cell line
  IC50: > 8000 nM
K052
  IC50: > 8000 nM
SF-295
  IC50: 3040 nM
HSC-3
  IC50: > 8000 nM
NCI-H292
  IC50: > 8000 nM
CAL-72
  IC50: > 8000 nM
A2780
  IC50: > 8000 nM
KYSE-510
  IC50: > 8000 nM
NCI-H524
  IC50: > 8000 nM
NCI-H2009
  IC50: > 8000 nM
GCT
  IC50: 3600 nM
NCI-H1522
  IC50: > 8000 nM
HT-3
  IC50: > 8000 nM
SW780
  IC50: > 8000 nM
OE33
  IC50: > 8000 nM
LOUCY
  IC50: > 8000 nM
L-540
  IC50: > 8000 nM
SNU-16
  IC50: > 8000 nM
VM-CUB-1
  IC50: > 8000 nM
DBTRG-05MG
  IC50: > 8000 nM
SAOS-2
  IC50: > 8000 nM
EW-7
  IC50: > 8000 nM
HCC1419
  IC50: > 8000 nM
A-427
  IC50: > 8000 nM
NCI-H1993
  IC50: > 8000 nM
Daoy
  IC50: > 8000 nM
HGC-27
  IC50: 6270 nM
639-V
  IC50: 4840 nM
SNU-C1
  IC50: > 8000 nM
SW1417
  IC50: > 8000 nM
BC1 cell line
  IC50: 5380 nM
HCC1569
  IC50: 1960 nM
MG-63
  IC50: 3290 nM
ST486
  IC50: 1740 nM
SNU-387
  IC50: 3800 nM
DV-90
  IC50: > 8000 nM
BC-3
  IC50: 7460 nM
SJRH30
  IC50: > 8000 nM

## O=c1[nH]c2ccccc2n1C1CCN(Cc2ccc(-c3nc4cc5[nH]cnc5cc4nc3-c3ccccc3)cc2)CC1
HOP-92
  IC50: > 2560 nM
SCC-4
  IC50: > 2560 nM
KYSE-410
  IC50: > 2560 nM
NCCIT
  IC50: > 2560 nM
EVSA-T
  IC50: > 2560 nM
MKN-1
  IC50: > 2560 nM
U-118-MG
  IC50: > 2560 nM
C32
  IC50: > 2560 nM
JIYOYE
  IC50: > 2560 nM
NCI-H187
  IC50: > 2560 nM
KU-19-19
  IC50: > 2560 nM
MC-IXC
  IC50: 2060 nM
SUP-T1
  IC50: > 2560 nM
AN3-CA
  IC50: 1660 nM
NCI-H2227
  IC50: > 2560 nM
HT55
  IC50: > 2560 nM
SCC-3
  IC50: > 2560 nM
TYK-nu
  IC50: > 2560 nM
T-24
  IC50: > 2560 nM
COLO-678
  IC50: > 2560 nM
SW48
  IC50: > 2560 nM
GDM-1
  IC50: > 2560 nM
NCI-H520
  IC50: 1130 nM
TT
  IC50: > 2560 nM
KYSE-520 cell line
  IC50: > 2560 nM
K052
  IC50: > 2560 nM
SF-295
  IC50: > 2560 nM
HSC-3
  IC50: > 2560 nM
NCI-H292
  IC50: > 2560 nM
CAL-72
  IC50: > 2560 nM
A2780
  IC50: > 2560 nM
KYSE-510
  IC50: 2210 nM
NCI-H524
  IC50: > 2560 nM
NCI-H2009
  IC50: > 2560 nM
GCT
  IC50: > 2560 nM
NCI-H1522
  IC50: > 2560 nM
HT-3
  IC50: > 2560 nM
SW780
  IC50: > 2560 nM
OE33
  IC50: 1890 nM
LOUCY
  IC50: > 2560 nM
L-540
  IC50: > 2560 nM
SNU-16
  IC50: > 2560 nM
VM-CUB-1
  IC50: > 2560 nM
DBTRG-05MG
  IC50: > 2560 nM
SAOS-2
  IC50: > 2560 nM
EW-7
  IC50: > 2560 nM
HCC1419
  IC50: 2340 nM
A-427
  IC50: > 2560 nM
NCI-H1993
  IC50: > 2560 nM
Daoy
  IC50: > 2560 nM
HGC-27
  IC50: 150 nM
639-V
  IC50: > 2560 nM
SNU-C1
  IC50: 2010 nM
SW1417
  IC50: > 2560 nM
BC1 cell line
  IC50: > 2560 nM
HCC1569
  IC50: > 2560 nM
MG-63
  IC50: > 2560 nM
ST486
  IC50: > 2560 nM
SNU-387
  IC50: > 2560 nM
DV-90
  IC50: > 2560 nM
BC-3
  IC50: > 2560 nM
SJRH30
  IC50: > 2560 nM

## Fc1cc(-c2cc[nH]/c(=N/c3ccc(-n4cnc(N5CCOCC5)n4)cc3)n2)cc(N2CCOCC2)c1
HOP-92
  IC50: 2410 nM
SCC-4
  IC50: 1250 nM
KYSE-410
  IC50: 1280 nM
NCCIT
  IC50: 398 nM
EVSA-T
  IC50: 1270 nM
MKN-1
  IC50: 549 nM
U-118-MG
  IC50: > 5120 nM
C32
  IC50: > 5120 nM
JIYOYE
  IC50: 263 nM
NCI-H187
  IC50: 2790 nM
KU-19-19
  IC50: 5100 nM
MC-IXC
  IC50: 127 nM
SUP-T1
  IC50: 427 nM
AN3-CA
  IC50: 335 nM
NCI-H2227
  IC50: > 5120 nM
HT55
  IC50: > 5120 nM
SCC-3
  IC50: 582 nM
TYK-nu
  IC50: 2620 nM
T-24
  IC50: 2870 nM
COLO-678
  IC50: 3650 nM
SW48
  IC50: 742 nM
GDM-1
  IC50: 204 nM
NCI-H520
  IC50: 467 nM
TT
  IC50: 3550 nM
KYSE-520 cell line
  IC50: 448 nM
K052
  IC50: 508 nM
SF-295
  IC50: 555 nM
HSC-3
  IC50: 713 nM
NCI-H292
  IC50: 508 nM
CAL-72
  IC50: > 5120 nM
A2780
  IC50: 653 nM
KYSE-510
  IC50: 447 nM
NCI-H524
  IC50: > 5120 nM
NCI-H2009
  IC50: 508 nM
GCT
  IC50: 204 nM
NCI-H1522
  IC50: 889 nM
HT-3
  IC50: 102 nM
SW780
  IC50: 1630 nM
OE33
  IC50: 517 nM
LOUCY
  IC50: 112 nM
L-540
  IC50: 677 nM
SNU-16
  IC50: > 5120 nM
VM-CUB-1
  IC50: 3480 nM
DBTRG-05MG
  IC50: 750 nM
SAOS-2
  IC50: 1780 nM
EW-7
  IC50: 562 nM
HCC1419
  IC50: 1090 nM
A-427
  IC50: 286 nM
NCI-H1993
  IC50: 2280 nM
Daoy
  IC50: 865 nM
HGC-27
  IC50: 284 nM
639-V
  IC50: 220 nM
SNU-C1
  IC50: 390 nM
SW1417
  IC50: 885 nM
BC1 cell line
  IC50: 491 nM
HCC1569
  IC50: 412 nM
MG-63
  IC50: 669 nM
ST486
  IC50: 190 nM
SNU-387
  IC50: 417 nM
DV-90
  IC50: 958 nM
BC-3
  IC50: 598 nM
SJRH30
  IC50: 349 nM
